Source: the NIST ThermoML archive (doi:10.1021/je700145e)

Details: Liquid

CCCCCCCCCCO [decan-1-ol]
Details | mass density [kg/m3]
313.12 K, 1025 kPa | 816.79
313.12 K, 2002 kPa | 817.46
313.12 K, 2995 kPa | 817.98
313.12 K, 4013 kPa | 818.58
313.12 K, 5004 kPa | 819.21
313.12 K, 5994 kPa | 819.86
313.12 K, 7003 kPa | 820.47
313.12 K, 7997 kPa | 821.19
313.12 K, 9000 kPa | 821.73
313.12 K, 9994 kPa | 822.38
313.12 K, 10995 kPa | 823.02
313.12 K, 11995 kPa | 823.67
313.12 K, 12997 kPa | 824.2
313.12 K, 13996 kPa | 824.82
313.12 K, 14998 kPa | 825.42
313.12 K, 15990 kPa | 826.01
313.12 K, 16995 kPa | 826.61
313.12 K, 17986 kPa | 827.14
313.12 K, 18992 kPa | 827.76
313.12 K, 19993 kPa | 828.31
313.12 K, 20999 kPa | 828.88
313.12 K, 21509 kPa | 829.19
323.09 K, 1002 kPa | 809.87
323.09 K, 2011 kPa | 810.59
323.09 K, 3019 kPa | 811.21
323.09 K, 4014 kPa | 811.83
323.09 K, 5006 kPa | 812.47
323.09 K, 6012 kPa | 813.18
323.09 K, 7002 kPa | 813.8
323.09 K, 8003 kPa | 814.42
323.09 K, 9008 kPa | 815.1
323.09 K, 10006 kPa | 815.7
323.09 K, 11000 kPa | 816.38
323.09 K, 12002 kPa | 816.97
323.09 K, 13002 kPa | 817.64
323.09 K, 14000 kPa | 818.21
323.09 K, 15017 kPa | 818.84
323.09 K, 16003 kPa | 819.4
323.09 K, 17015 kPa | 820.02
323.09 K, 18006 kPa | 820.61
323.09 K, 19007 kPa | 821.24
323.09 K, 20007 kPa | 821.84
323.09 K, 21002 kPa | 822.41
323.09 K, 22014 kPa | 823.01
333.04 K, 1046 kPa | 802.82
333.04 K, 2018 kPa | 803.5
333.04 K, 3008 kPa | 804.21
333.04 K, 4012 kPa | 804.88
333.04 K, 5059 kPa | 805.62
333.04 K, 6016 kPa | 806.29
333.04 K, 7022 kPa | 807
333.04 K, 8014 kPa | 807.64
333.04 K, 9015 kPa | 808.34
333.04 K, 10015 kPa | 808.97
333.04 K, 11019 kPa | 809.64
333.04 K, 12007 kPa | 810.31
333.04 K, 13019 kPa | 810.96
333.04 K, 14019 kPa | 811.6
333.04 K, 15014 kPa | 812.24
333.04 K, 16021 kPa | 812.88
333.04 K, 17026 kPa | 813.5
333.04 K, 18023 kPa | 814.11
333.04 K, 19018 kPa | 814.72
333.04 K, 20025 kPa | 815.35
333.04 K, 21020 kPa | 815.94
333.04 K, 22032 kPa | 816.58
342.98 K, 1058 kPa | 795.63
342.98 K, 2045 kPa | 796.4
342.98 K, 3022 kPa | 797.12
342.98 K, 4035 kPa | 797.9
342.98 K, 5028 kPa | 798.63
342.98 K, 6030 kPa | 799.37
342.98 K, 7023 kPa | 800.07
342.98 K, 8028 kPa | 800.78
342.98 K, 9062 kPa | 801.51
342.98 K, 10035 kPa | 802.22
342.98 K, 11029 kPa | 802.92
342.98 K, 12064 kPa | 803.64
342.98 K, 13023 kPa | 804.31
342.98 K, 14042 kPa | 805
342.98 K, 15022 kPa | 805.66
342.98 K, 16022 kPa | 806.36
342.98 K, 17021 kPa | 807
342.98 K, 18034 kPa | 807.7
342.98 K, 19025 kPa | 808.35
342.98 K, 20038 kPa | 808.98
342.98 K, 21018 kPa | 809.62
342.98 K, 22035 kPa | 810.28
352.86 K, 1069 kPa | 788.44
352.86 K, 2043 kPa | 789.24
352.86 K, 3040 kPa | 790.04
352.86 K, 4048 kPa | 790.78
352.86 K, 5038 kPa | 791.59
352.86 K, 6043 kPa | 792.34
352.86 K, 7038 kPa | 793.09
352.86 K, 8039 kPa | 793.84
352.86 K, 9040 kPa | 794.57
352.86 K, 10038 kPa | 795.32
352.86 K, 11032 kPa | 796.04
352.86 K, 12032 kPa | 796.74
352.86 K, 13040 kPa | 797.47
352.86 K, 14046 kPa | 798.18
352.86 K, 15043 kPa | 798.89
352.86 K, 16037 kPa | 799.59
352.86 K, 17040 kPa | 800.26
352.86 K, 18046 kPa | 800.95
352.86 K, 19040 kPa | 801.63
352.86 K, 20064 kPa | 802.32
352.86 K, 21048 kPa | 802.96
352.86 K, 22049 kPa | 803.62
362.89 K, 1077 kPa | 781.02
362.89 K, 2027 kPa | 781.83
362.89 K, 3089 kPa | 782.69
362.89 K, 4047 kPa | 783.49
362.89 K, 5061 kPa | 784.29
362.89 K, 6060 kPa | 785.12
362.89 K, 7041 kPa | 785.91
362.89 K, 8049 kPa | 786.7
362.89 K, 9049 kPa | 787.47
362.89 K, 10052 kPa | 788.25
362.89 K, 11045 kPa | 788.99
362.89 K, 12044 kPa | 789.75
362.89 K, 13054 kPa | 790.54
362.89 K, 14053 kPa | 791.25
362.89 K, 15052 kPa | 792
362.89 K, 16056 kPa | 792.77
362.89 K, 17063 kPa | 793.47
362.89 K, 18062 kPa | 794.2
362.89 K, 19062 kPa | 794.91
362.89 K, 20068 kPa | 795.64
362.89 K, 21072 kPa | 796.35
362.89 K, 22063 kPa | 797.03
